System: mitochondria prepared from the livers of male Sprague Dawley rats
Assay: in vitro mitochondrial swelling assay (light scattering at 540 nm)
Format: biochemical, rat
Conditions: for swelling response of non-peroxide stressed (control) mitochondria: normal, unstressed mitochondria, test article 100 μM, time course over 17 minutes, FIG. 1
Experimental: To evaluate the effects of sulfite salts on carboxylic acid NSAID-induced mitochondrial swelling, the following assay was used. […] An initial low speed centrifugation (600×g for 10 minutes) was conducted to remove nuclei and cell debris. The pellet was discarded and the supernatant was centrifuged at 7,740×g for 10 minutes to obtain a crude mitochondrial pellet. […] The suspension was centrifuged at 7,740×g for 10 minutes. The mitochondrial pellet was suspended in 30 mL of ice-cold wash buffer and centrifuged at 10,100×g for 10 minutes. […] The mitochondrial suspension was placed on ice for immediate assay. An aliquot of the mitochondrial preparation was added to a 5.0 mL cuvette (1.0 cm path length) that contained 2.95 mL of iso-osmotic HEPES buffer, supplemented with sodium succinate and rotenone. An appropriate aliquote of the mitochondrial suspension was added to the cuvette and swelling was monitored by light scattering at 540 nm for a period of 17 minutes. When drug effects were examined, mitochondria were initially exposed for a period of one minute to the test article before the addition of either buffer, t-BOOH (150 μM) or sodium sulfite (300 μM).

| swelling response of non-peroxide stressed (control) mitochondria | swelling response of t-BOOH-stressed mitochondria (t-BOOH 150 μM, diclofenac 30, 100 or 300 μM, FIG. 2) | SMILES | effect of sulfite salt on NSAID-induced swelling of peroxide-stressed mitochondria (t-BOOH 150 μM, sodium sulfite 300 μM with 60 μM amfenac or 60 μM bromfenac, FIG. 3) |
| --- | --- | --- | --- |
| do not affect swelling |  | Nc1c(CC(=O)O)cccc1C(=O)c1ccccc1 [amfenac] |  |
| do not affect swelling |  | Nc1c(CC(=O)O)cccc1C(=O)c1ccc(Br)cc1 [bromfenac] |  |
| do not affect swelling | promote the swelling of mitochondria | O=C(O)Cc1ccccc1Nc1c(Cl)cccc1Cl [diclofenac] |  |
| do not affect swelling |  | CC(C)Cc1ccc(C(C)C(=O)O)cc1 (stereo not drawn) [ibuprofen] |  |
|  |  | O=S([O-])[O-].[Na+].[Na+] [sodium sulfite] | mitochondrial swelling is prevented |
